Laboratory results reported in paper PMC8069832, “New Amides and Phosphoramidates Containing Selenium: Studies on Their Cytotoxicity and Antioxidant Activities in Breast Cancer” (Antioxidants, 2021).
Where two headings read alike, the source gives them in different places.

What was measured:
BEAS-2B = test: MTT cytotoxicity in nonmalignant bronchial epithelium cells; type: cell-based; conditions: for GI50 / IC (TGI): Homo sapiens, BEAS-2B, 48 h; for GI50: read-out: GI50 BEAS-2B; for IC (TGI): read-out: TGI BEAS-2B; for Selectivity index (SI) = GI50 (BEAS-2B)/GI50 (HTB-54): lung
Method: (§1) Cell lines were provided by the European Collection of Cell Cultures (ECACC) or by the American Type Culture Collection (ATCC). Seven cell lines were used: MCF-7 (breast adenocarnicoma), 184B5 (nonmalignant, mammary gland derived), CCRF-CEM (lymphoblastic leukemia), HT-29 (colon carcinoma), HTB-54 (lung carcinoma), BEAS-2B (nonmalignant, derived from the bronchial epithelium) and PC-3 (prostate carcinoma). MCF-7, CCRF-CEM, HT-29, HTB-54, BEAS-2B and PC-3 cell lines were grown in RPMI medium (Gibco) supplemented with 10% fetal bovine serum (FBS; Gibco), 100 units/mL penicillin and […] streptomycin (Gibco). 184B5 cells were grown in DMEM/F12 medium supplemented with 5% FBS, 1 × ITS (Lonza), 100 nM hydrocortisone (Aldich), 2 mM sodium pyruvate (Lonza), 20 ng/mL EGF (Sigma-Aldrich), 0.3 nM trans-retinoic acid (Sigma-Aldrich), 100 units/mL penicillin and […] streptomycin. Cells were maintained at 37 °C and 5% CO2.
(§2) The cytotoxic effect of each substance was tested by the MTT method. Each compound was initially dissolved in DMSO at a concentration of 0.01 M, and serial dilutions were prepared with nonsupplemented medium. The cytotoxic effect of each compound was tested at 50 and 10 µM as a first screening. […]
(§3) A total of 1 × 10^4 cells/well in 96-well plates were treated with increasing concentrations of the corresponding compounds for 48 h at 37 °C in a humidified atmosphere containing 5% CO2. Then, cells were incubated with 50 µL of MTT (2 mg/mL stock) for 4 h. The medium was then removed by aspiration, and the formazan crystals were dissolved in […] of DMSO. […] Data were obtained from at least 3 independent experiments performed in quadruplicate. The standard error of the means (SEM) for the cytotoxic parameters was calculated applying the standard deviation formula to the mean values of each parameter for the three independent experiments performed.
(§4) . Cisplatin was used as a standard drug. […]. […] The presence of electron-withdrawing groups (-NO2, -CF3, -Cl) in the phenyl ring favored the cytotoxic activity in the amides, but in the phosphoramidates, the best results were obtained for aliphatic chains methoxy (II.1b, II.2b) and ethoxy (II.1d, II.2d). […].
(§5) The lack of selectivity toward cancerous cells is one of the major issues during the discovery and development of new anticancer agents. Therefore, we evaluated the cytotoxic activity of our compounds against two cell lines derived from nonmalignant breast tissue (184B5) and no malignant bronchial epithelium (BEAS-2B) (Table 2). […].

[1] = as above; type: cell-based; conditions: human
Method: as §1, §2, §3, §4, §5

MCF-7 [2] = conditions: read-out: GI50 MCF-7; 48 h, average ± SEM
CCRF-CEM = test: cells; conditions: Homo sapiens, 48 h; for activity at 10 µM: read-out: Cell growth (%) CCRF-CEM; for GI50: read-out: GI50 CCRF-CEM; for CC50: read-out: LC50 CCRF-CEM; for IC (TGI): read-out: TGI CCRF-CEM
HTB-54 = test: cells; type: cell-based; conditions: Homo sapiens; for CC50: read-out: LC50 HTB54; for GI50: read-out: GI50 HTB54; for IC (TGI): read-out: TGI HTB54
Method: as §1, §2, §3, §4

PC-3 = test: cells; type: cell-based; conditions: Homo sapiens; for LC50: read-out: LC50 PC-3; for GI50: read-out: GI50 PC-3; for IC (TGI): read-out: TGI PC-3
Method: as §1, §2, §3, §4

184B5 = test: MTT cytotoxicity in nonmalignant mammary gland derived cells; type: cell-based; conditions: for GI50 / IC (TGI): Homo sapiens; for GI50: read-out: GI50 184B5; for IC (TGI): read-out: TGI 184B5; for Selectivity index (SI) = GI50 (184B5)/GI50 (MCF-7): breast
Method: as §1, §2, §3, §4, §5

[3] = as above; type: cell-based; conditions: human
Method: as §1, §2, §3, §4, §5

MCF-7 [4] = test: cells; conditions: Homo sapiens, MCF7, 48 h; for activity at 10 µM: read-out: Cell growth (%) MCF-7; for GI50: read-out: GI50 MCF-7, 48 h, average ± SEM; for CC50: read-out: LC50 MCF-7; for IC (TGI): read-out: TGI MCF-7
HT-29 = test: cells; conditions: Homo sapiens, HT-29, 48 h; for activity at 10 µM: read-out: Cell growth (%) HT-29; for GI50: read-out: GI50 HT-29; for CC50: read-out: LC50 HT-29; for IC (TGI): read-out: TGI HT-29
[5] = DPPH radical scavenging assay; conditions: for DPPH activity inhibition: 0.03 mg/mL, after 30 min
Method: The DPPH (1,1-diphenyl-2-picrylhydrazyl radical) assay measures the hydrogen donation ability of the antioxidant to convert the stable DPPH free radical into 1,1-diphenyl-2-(2,4,6-trinitrophenyl)-hydrazine. After radical reaction with the compounds, a decrease in the absorbance was detected at 517 nm, which is accompanied by a change of color from violet to light-yellow. The target compounds were dissolved in methanol to make 1 mg/mL stock solutions, which were diluted to five concentrations as test samples. Ascorbic acid was used as a standard, and the experiment was carried out on 96-well plates. The DPPH solution was prepared at a 100 µM concentration. For each test, 100 µL of DPPH solution was added to 100 µL of methanolic solution containing the tested derivatives, and the absorbance was determined at different time points. All the measurements were carried out in triplicate. Results were expressed as the percentage of the radical scavenged, calculated using the following formula:(1) % DPPH radical scavenging=Acontrol − Asample/Acontrol × 100 where Acontrol refers to the absorbance of the negative control, and Asample refers to the absorbance of the tested compounds. Results are expressed as a percentage of DPPH radical scavenged ± SEM.
. Ascorbic acid and Trolox were used as radical scavenger gold standards. […]. No correlation was found for either structure–radical scavenging activity or antitumor–radical scavenging activity, except for compound I.2f, one of the selected cytotoxic agents. To further confirm this antioxidant activity, three compounds (I.1e, I.1g and I.2i) were also evaluated as DPPH radical scavengers at a lower concentration of 0.003 mg/mL (Figure 3B).

[6] = 184B5, nonmalignant cells, 48 h

Row | Compound | GI50 (BEAS-2B; nonmalignant cells) [µM] | IC (TGI) (BEAS-2B; nonmalignant cells) [µM] | LC50 (50% lethal concentration) at 48 h [1] [µM] | GI50 (MCF-7 [2]) [µM] | activity at 10 µM (CCRF-CEM) [%] | GI50 (CCRF-CEM) [µM] | CC50 (CCRF-CEM) [µM] | IC (TGI) (CCRF-CEM) [µM] | CC50 (HTB-54; HTB-54, 48 h) [µM] | GI50 (HTB-54; HTB-54, 48 h, average ± SEM) [µM] | IC (TGI) (HTB-54; HTB-54, 48 h, average ± SEM) [µM] | LC50 (PC-3; PC-3, 48 h) [µM] | activity at 10 µM (MCF-7 [4]) [%] | GI50 (MCF-7 [4]) [µM] | CC50 (MCF-7 [4]) [µM] | IC (TGI) (MCF-7 [4]) [µM] | activity at 10 µM (HT-29) [%] | GI50 (HT-29) [µM] | CC50 (HT-29) [µM] | IC (TGI) (HT-29) [µM] | other results
1 | N#C[Se]c1ccc(NC(=O)c2ccc(Cl)cc2)cc1 [I.2b] | > 100 | > 100 | > 100 | 0.5 ± 0.9 | 50.1 | 8.7 ± 1.1 | > 100 | > 100 | > 100 | > 100 | > 100 | > 100 | 33.5 | < 1 | > 100 | 51.8 ± 2.5 | 52.3 | 16.5 ± 3.6 | > 100 | > 100 | GI50 (PC-3; PC-3, 48 h, average ± SEM): > 100 µM; IC (TGI) (PC-3; PC-3, 48 h, average ± SEM): > 100 µM; GI50 (184B5; [6]): 0.89 µM; IC (TGI) (184B5; [6]): > 100 µM; Selectivity index (SI) = GI50 (184B5)/GI50 (MCF-7) (184B5): 1.53; LC50 (50% lethal concentration) at 48 h [3]: > 100 µM
2 | N#C[Se]c1ccc(NC(=O)c2ccc([N+](=O)[O-])cc2)cc1 [I.2e] | > 100 | > 100 | > 100 | 0.6 ± 0.1 | 50.3 | 31.6 ± 0.4 | > 100 | > 100 | > 100 | > 100 | > 100 | > 100 | 33.4 | < 1 | > 100 | 54.4 ± 2.7 | 35.9 | 0.8 ± 0.1 | > 100 | 58.2 ± 6.4 | GI50 (PC-3; PC-3, 48 h, average ± SEM): > 100 µM; IC (TGI) (PC-3; PC-3, 48 h, average ± SEM): > 100 µM; GI50 (184B5; [6]): 7.13 µM; IC (TGI) (184B5; [6]): > 100 µM; LC50 (50% lethal concentration) at 48 h [3]: > 100 µM
3 | N#C[Se]c1ccc(NC(=O)c2ccno2)cc1 [I.2j] | – | – | – | – | 48.4 | – | – | – | – | – | – | – | 91 | – | – | – | 90.8 | – | – | – | DPPH activity inhibition [5]: greater than 35%
4 | COP(=O)(Nc1ccc([Se]C#N)cc1)OC [II.2b] | – | – | – | 0.6 ± 0.2 | -67.4 | 1.6 ± 0.2 | 4.8 ± 0.3 | 3.2 ± 0.2 | 34.6 ± 0.4 | – | – | 49 ± 0.7 | -5.82 | < 1 | 9.1 ± 0.7 | 5 ± 1 | -69.4 | 2 ± 0.3 | 5 ± 0.1 | 3.5 ± 0.1 | GI50 (BEAS-2B): 5.22 µM; IC (TGI) (BEAS-2B): 6.8 µM; Selectivity index (SI) = GI50 (BEAS-2B)/GI50 (HTB-54) (BEAS-2B): 0.84; LC50 (50% lethal concentration) at 48 h ([1]; nonmalignant cells, 48 h, read-out: LC50 BEAS-2B): 8.38 µM; GI50 (HTB-54; HTB-54, 48 h): 6.2 ± 0.2 µM; IC (TGI) (HTB-54; HTB-54, 48 h): 8.6 ± 0.4 µM; GI50 (PC-3; PC-3, 48 h): 6.4 ± 0.2 µM; IC (TGI) (PC-3; PC-3, 48 h): 9.3 ± 0.1 µM; GI50 (184B5; 184B5, 48 h): 5.44 µM; IC (TGI) (184B5; 184B5, 48 h): 6.94 µM; Selectivity index (SI) = GI50 (184B5)/GI50 (MCF-7) (184B5): 7.56; CC50 at 48 h ([3]; nonmalignant cells, 48 h, read-out: LC50 184B5): 8.44 µM
5 | O=C(Nc1ccc([Se][Se]c2ccc(NC(=O)c3ccc([N+](=O)[O-])cc3)cc2)cc1)c1ccc([N+](=O)[O-])cc1 [I.1e] | 0.42 | 4.8 | 15.8 | – | 35.4 | 6.5 ± 1.5 | 67 ± 2 | 33.8 ± 2 | 72.8 ± 1.4 | 16.9 ± 3.1 | 44.8 ± 2.3 | 64.9 ± 1.1 | 45.2 | 7.4 ± 1 | 73.4 ± 0.1 | 40.1 ± 0.1 | 49.2 | 16.8 ± 2.5 | 72.3 ± 1.8 | 44.6 ± 3.1 | Selectivity index (SI) = GI50 (BEAS-2B)/GI50 (HTB-54) (BEAS-2B): 0.02; DPPH radical scavenging activity ([5]; 0.003 mg/mL): some moderate effect was observed; DPPH activity inhibition [5]: greater than 35%; GI50 (PC-3; PC-3, 48 h, average ± SEM): 2.5 ± 0.2 µM; IC (TGI) (PC-3; PC-3, 48 h, average ± SEM): 28.5 ± 1.9 µM; GI50 (184B5; [6]): 7.76 µM; IC (TGI) (184B5; [6]): 33.8 µM; Selectivity index (SI) = GI50 (184B5)/GI50 (MCF-7) (184B5): 1.14; LC50 (50% lethal concentration) at 48 h [3]: 68.2 µM
